The supplement of paper PMC11208160

Assay: recombinant barcode read abundance after kanamycin selection (control-corrected) (log10(CPM+1)); higher = more efficient recombination; sequences stand for … in AGTGCAGAGAAAATCGGCCAGTTTTCTCTGCCTGCAGTCCGCATGCCGT…AGATTTATGCAGCGGACTGCCTTTCTCCCAAAGTGATAAACCGGACAGTATCATGGACCGGTTTTCCCGGTAATCCGTATTTGCAAGGTTGGTTTCACT; site = the 11-nt target
Summary of the method: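 A vector carrying a T7-inducible recombinase and the last 73 bp of the bridge RNA received, by Gibson cloning, oligos encoding a promoter, target, barcode and the first 104 bridge RNA bases under J23119. The pooled constructs entered E. coli together with a donor plasmid by electroporation. Selection used chloramphenicol/ampicillin/kanamycin with 0.1 mM IPTG, with chloramphenicol/ampicillin LB agar as the control, each in two replicates. Recombination efficiency is the averaged, control-corrected counts-per-million of barcodes at recombinant junctions, reported as log10(CPM+1).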
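Further: IS621 recombinase and bridge RNA in Escherichia coli cells.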

| Sequence | recombinant barcode read abundance (log10) |
| --- | --- |
| GGGCCTGCTTGGGTTCTAACCTGTTGCCT (site GGGCCTGCTAG) | 2.1 |
| GGGGAAGCTTGGGTTCTAACCTGTTGCCT (site GAGGAAGCTAG) | 0.276 |
| GGGGAAGCTTGGGTTCTAACCTGTTGCCT (site GCGGAAGCTAG) | 0.343 |
| GGGGAAGCTTGGGTTCTAACCTGTTGCCT (site GGGGAAGCTAG) | 1.73 |
| GGGGAAGCTTGGGTTCTAACCTGTTGCCT (site GTGGAAGCTAG) | 0.291 |
| GGGGATCCTTGGGTTCTAACCTGTTGCGA (site GGGGAGCCTCC) | 0.00823 |
| GGGGATCCTTGGGTTCTAACCTGTTGCGA (site GGGGATCCTTC) | 2.06 |
| GGGGATTCTTGGGTTCTAACCTGTTGCCT (site GGGGATTCTAG) | 2.05 |
| GGGGATTCTTGGGTTCTAACCTGTTGCCT (site GTGGATGCTAG) | 0.0823 |
| GGGGCCTCTTGGGTTCTAACCTGTTGCAA (site AGGGCCTCTCT) | 0.474 |
| GGGGCCTCTTGGGTTCTAACCTGTTGCAA (site GGGGCCTCTTT) | 2.56 |
| GGGGCCTCTTGGGTTCTAACCTGTTGCTG (site GGAGCCTCTGA) | 0.0595 |
| GGGGCCTCTTGGGTTCTAACCTGTTGCTG (site GGGGCCTCTCA) | 3.02 |
| GGGGCTACTTGGGTTCTAACCTGTTGCAC (site GGGGCTACTAG) | 0.58 |
| GGGGCTACTTGGGTTCTAACCTGTTGCAC (site GGGGCTACTGT) | 2.62 |
| GGGGCTTCTTGGGTTCTAACCTGTTGCTT (site GGGGCATCTAA) | 0.129 |
| GGGGCTTCTTGGGTTCTAACCTGTTGCTT (site GGGGCCTCTAA) | 0.762 |
| GGGGCTTCTTGGGTTCTAACCTGTTGCTT (site GGGGCGTCTAA) | 0.343 |
| GGGGCTTCTTGGGTTCTAACCTGTTGCTT (site GGGGCTTCTAA) | 0.913 |
| GGGGTAACTTGGGTTCTAACCTGTTGCCT (site GGGACAACTAG) | 0.0486 |
| GGGGTAACTTGGGTTCTAACCTGTTGCCT (site GGGGTAACTAG) | 0.58 |
| GGGGTCCCTTGGGTTCTAACCTGTTGCCA (site GAGATCCCTTG) | 0.247 |

| Sequence | recombinant barcode read abundance (log10) |
| --- | --- |
| GGGGTCCCTTGGGTTCTAACCTGTTGCCA (site GGGGTCCCTTG) | 1.8 |
| GGGTACACTTGGGTTCTAACCTGTTGCTA (site AGGTAGACTTA) | 0.0922 |
| GGGTACACTTGGGTTCTAACCTGTTGCTA (site GGGTACACTTA) | 2.12 |
| GGGTACCCTTGGGTTCTAACCTGTTGCCT (site GAGTACCCTAG) | 0.584 |
| GGGTACCCTTGGGTTCTAACCTGTTGCCT (site GCGTACCCTAG) | 0.126 |
| GGGTACCCTTGGGTTCTAACCTGTTGCCT (site GGGTACCCTAG) | 1.99 |
| GGGTACCCTTGGGTTCTAACCTGTTGCCT (site GTGTACCCTAG) | 0.133 |
| GGGTCGGCTTGGGTTCTAACCTGTTGCGC (site GGGTCGGCTAC) | 0.0769 |
| GGGTCGGCTTGGGTTCTAACCTGTTGCGC (site GGGTCGGCTCC) | 0.0276 |
| GGGTCGGCTTGGGTTCTAACCTGTTGCGC (site GGGTCGGCTGC) | 1.88 |
| GGGTCGGCTTGGGTTCTAACCTGTTGCGC (site GGGTCGGCTTC) | 0.0981 |
| GGGTCGGCTTGGGTTCTAACCTGTTGCGG (site GGGTCGGCTAC) | 0.147 |
| GGGTCGGCTTGGGTTCTAACCTGTTGCGG (site GGGTCGGCTCC) | 2.44 |
| GGGTCGGCTTGGGTTCTAACCTGTTGCGG (site GGGTCGGCTGC) | 0.0285 |
| GGGTCGGCTTGGGTTCTAACCTGTTGCGG (site GGGTCGGCTTC) | 0.609 |
| GGGTCGGCTTGGGTTCTAACCTGTTGCTG (site GGGTCGGCTCA) | 1.91 |
| GGGTCGGCTTGGGTTCTAACCTGTTGCTG (site GTCTCGGCTCA) | 0.0584 |
| GGTAAATCTTGGGTTCTAACCTGTTGCCT (site GGTAAATCTAG) | 0.459 |
| GGTAAATCTTGGGTTCTAACCTGTTGCCT (site GGTAAGTCTAG) | 0.359 |
| GGTAACCCTTGGGTTCTAACCTGTTGCGG (site GGTAACCCTCC) | 2.24 |
| GGTAACCCTTGGGTTCTAACCTGTTGCGG (site GGTCACCCTCC) | 0.0921 |
